Literature values in paper PMC12281572.
Values joined by “and” are separate entries in the source; they are usually repeats but may differ in a detail not shown here. Identical values can stand only once.

Test: FTIR, 4-fluorophenol as donor (the pK_BHX database, per the paper)
Details: CCl4; 25 C

Compound | pK_BHX (log10 Kf of the 1:1 H-bond complex with 4-fluorophenol, by FTIR)
CCN(C#N)CC | 1.63 log units
O=C(c1ccccc1)c1ccccc1 | 1.07 log units
Fc1nc(F)c(F)c(F)c1F | -0.49 log units
CCN(CC)C(=O)c1ccccc1 | 2.26 log units
CC(C)=O | 1.18 log units
C1CN2CCN1CC2 | 2.33 log units
C#CCNC | 1.64 log units
CN1CCCCC1 | 2.11 log units
CCOC(=O)C=CN(C)C | 2.09 log units
c1cc(N2CCCCC2)ccn1 | 2.68 log units
CCCO | 1.0 log units
c1ccc(N2CCCCC2)cc1 | 0.68 log units
CN(C)C=NCC(C)(C)C | 2.26 log units
CCCCCCl | -0.38 log units
CCOC(=O)C(F)(F)F | 0.08 log units
C1CSCSC1 | -0.06 log units
COc1ccc(C(=S)N(C)C)cc1 | 1.16 log units
Clc1ccncc1 | 1.54 log units
N#CC1CCCCC1 | 0.97 log units
CC(=O)N1CCCCC1 | 2.45 log units
c1ccc2cnccc2c1 | 1.94 log units
C(=NCc1ccccc1)c1ccccc1 | 1.18 log units
O=c1occo1 | 0.69 log units
CCOC(=O)N(C)C | 1.83 log units

Compound | pK_BHX (log10 Kf of the 1:1 H-bond complex with 4-fluorophenol, by FTIR)
ClCCCCCl | -0.47 log units
CS(=O)c1ccc([N+](=O)[O-])cc1 (centres unmarked) | 1.58 log units
C(=Nc1ccccc1)c1ccccc1 | 0.87 log units
Cc1ccc(N=CNc2ccc(C)cc2)cc1 | 2.22 log units
c1ccc(N=C(Nc2ccccc2)c2ccccc2)cc1 | 1.29 log units
C#Cc1ccccc1 | -0.44 log units and -0.6 log units
Cc1ccc(N=C(c2ccccc2)N(C)c2ccccc2)cc1 | 1.52 log units
C=CCNC | 2.0 log units
CCN(C)Cc1ccccc1 | 1.47 log units
OC12CC3CC(CC(C3)C1)C2 | 1.27 log units
CCN(C)Cc1cccc(F)c1 | 1.14 log units
O=c1c2ccccc2oc2ccccc12 | 1.36 log units
CNC(C)(C)C | 2.21 log units
CN1C(=O)CCC1=O | 1.06 log units
CN(C)c1ccc(C(=O)c2ccccc2)cc1 | 1.67 log units
CC(C)(C)C(=O)N(c1ccccc1)c1ccccc1 | 1.64 log units
NCc1cccc(C(F)(F)F)c1 | 1.43 log units
CCCN=C(NC)NC#N | 2.09 log units
Ic1cccnc1 | 1.37 log units
Cc1cnc2c(ccc3c(C)c(C)cnc32)c1C | 3.46 log units
CN(C)C(=S)N(C)C | 1.35 log units
O=C1CCCCCCC1 | 1.45 log units
CCN(CC)C(=O)Cl | 1.08 log units
C1C2CC3CC1CC(C2)C3C1OC1C1C2CC3CC(C2)CC1C3 (centres unmarked) | 1.44 log units

Compound | pK_BHX (log10 Kf of the 1:1 H-bond complex with 4-fluorophenol, by FTIR)
C1COC1 | 1.36 log units
COC(=O)N(c1ccccc1)c1ccccc1 | 1.41 log units
CC(=Nc1ccccc1)Nc1ccc(C)cc1 | 1.85 log units
C1COCCOCCOCCO1 | 1.13 log units
CN1CN(C)C1=O | 2.46 log units
CN(C)C=Nc1ccccc1 | 1.9 log units
CCC(CC)N(C(C)C)C(C)C | -0.34 log units
CN(C)C(=S)Cl | 0.5 log units
CCCCSCCCC | 0.23 log units
CN1CCC(Cl)CC1 | 1.7 log units
CCN(CC)c1ccc([N+](=O)[O-])cc1 | 0.9 log units
CC(C)=C(C)C | -0.85 log units
CCOC(=O)C(C)C | 1.09 log units
COC(=O)c1ccccc1 | 0.89 log units
Cc1cccc(CN)c1 | 1.97 log units
CC(C)OC(C)C | 1.11 log units
OC(C(F)(F)F)C(F)(F)F | -0.96 log units
COc1cc[n+]([O-])cc1 | 3.7 log units
NCCCCN | 2.21 log units
CCOC(=O)c1ccc(C#N)cc1 | 0.66 log units and 0.53 log units
O=S1(=O)CCCC1 | 1.17 log units
CN(C)C=NC(=S)N(C)C | 1.79 log units
CN=C(c1ccc(Br)cc1)N(C)C | 2.19 log units
COc1ccc(OC)cc1 | 0.12 log units

Compound | pK_BHX (log10 Kf of the 1:1 H-bond complex with 4-fluorophenol, by FTIR)
O=C1CCCCCCCCCCCCCC1 | 1.22 log units
Cc1ccnc(C)c1 | 2.21 log units
NC1CCCCC1 | 2.29 log units
CC1(C)CCC(C)(C)O1 | 1.43 log units
Cc1ccccc1C#N | 0.83 log units
CCC(C)(C)N=CN(C)C | 2.26 log units
CN(C)C=Nc1ccc(F)cc1 | 1.8 log units
CN(C)C(=O)c1ccc(Br)cc1 | 2.07 log units
C1CCC2OC2C1 (centres unmarked) | 1.13 log units
CCCC[N+](CCCC)(CCCC)[N-]C#N | 3.24 log units
CCCCO | 1.02 log units
CC(C)N | 2.2 log units
CCCN(CCC)CCC | 1.47 log units
c1ccc2c(c1)CCCN2 | 0.7 log units
Cc1ccc(N=CN(C)C)cc1 | 2.07 log units
c1cnccn1 | 0.92 log units
COc1ccc(N=CN(C)C)cc1 | 2.08 log units
CN=C(c1ccccc1)N(C)C | 2.62 log units
CN1CCN(C)CC1 | 1.88 log units
CCC(=O)NC | 2.24 log units
NCc1cccc([N+](=O)[O-])c1 | 1.26 log units
CC(C)(C)I | -0.33 log units
COc1ccccc1 | -0.07 log units
CCCCCF | -0.06 log units

Compound | pK_BHX (log10 Kf of the 1:1 H-bond complex with 4-fluorophenol, by FTIR)
CCN(CC)C(=O)c1ccc(OC)cc1 | 2.35 log units
c1ccc2c(c1)Cc1ccccc1-2 | -0.38 log units
CN1CCCC1=O | 2.38 log units
COC(=O)C1CC1 | 1.12 log units
CCOC(=O)N(c1ccccc1)c1ccccc1 | 1.45 log units
CCOc1ccccc1 | -0.01 log units
Cc1nc2ccccc2o1 | 1.48 log units
N#CC12CC3CC(CC(C3)C1)C2 | 1.0 log units
Fc1cccc(F)n1 | 0.14 log units
C1=CCCCC1 | -0.82 log units
C=CSCC | -0.13 log units
CCN(CC)C(=O)C(F)(F)F | 1.06 log units
CCCCCCCCCCCCCCCCN | 2.26 log units
CCc1cccnc1 | 2.01 log units
CN(C)Cc1cccc(F)c1 | 1.27 log units
CCCCNCCCC | 2.11 log units
CC(C)(C)Cl | -0.28 log units
CN(C)c1ccccn1 | 1.61 log units
Cc1cccnc1 | 2.0 log units
O=S(c1ccccc1)c1ccccc1 | 2.04 log units
